# Test results as given in EP3102180B1, “A TOPICAL COMPOSITION” (Unilever N.V., priority 2014, dated 2015).
# Columns and labels:
# Assay type in all cases: cell-based
# TNF-alpha [1] = test: TNF-alpha ELISA in PBMCs exposed to P.acne (with or without antimicrobial treatment of the bacteria); conditions: Table 10: PBMCs; Andrographolide pre-treatment (0.001% per procedure); P.acne treated with 0.05% Thymol, 0.05% Terpineol or 0.2% Silver Oxide; P.acne alone 635.6
# IL-8 [2] = test: IL-8 ELISA in PBMCs exposed to P.acne (with or without antimicrobial treatment of the bacteria)
# Procedure: Actives/ Compositions as shown in Table-8 were measured for effect on inflammatory marker IL-8 using the following procedure: PBMCs were isolated as discussed before for Example-1. They were then plated in a 96-well plate. In some wells, cells were pre-treated with 0.001% Andrographolide for 24 hours and some wells were not treated with anything. P.acne culture was grown on CY agar medium in aneorobic chamber and then culture was set to the .005 O.D. Bacterial culture was treated with antimicrobial active combination of thymol (0.05%) and terpineol (0.05%) for 30 seconds. After the contact time is over, sample was neutralized in D/E neutralizer. The bacterial pellet was collected by centrifugation. The pellet was re-suspended in cell culture medium and bacterial culture was added to the cells (PBMC's) treated with andrographolide and also bacterial culture was added to the wells where there was no treatment with andrographolide. Live P.acne (not treated with the antimicrobial actives) was added to the wells where there was no treatment with andrographolide and also added to the wells treated with andrographolide. The treated cells were incubated in 37° C incubator for 24 hours. After 24 hours the supernatant was removed and ELISA was done for IL-8 marker.
# The same procedure was followed as explained in the previous section for this experiment. The antimicrobials which were used for this experiment were thymol, terpineol, Triclosan (TCN) and Trichlorocarban (TCC). The used concentrations of these antimicrobials and the concentration of the IL-8 marker after the treatment are summarized in the following Table 9. Table - 9
# IL-17 [3] = test: Co-treatment with different actives, cytokine ELISA in PBMCs; conditions: co-treatment with 0.001% active, 25 ng PMA/ 1 µg lonomycin; control 2244
# bacterial cells = test: Antibacterial contact-time kill test (pour plate count after neutralisation); conditions: 0.2% TCC or 0.2% thymol + 0.5% terpineol
# Procedure: Efficacy of two compositions as shown in Table - 4 were measured as follows: The O.D of the bacterial cells were adjusted such that it corresponds to 1X10^8 cells of bacteria. 1ml of the bacterial culture was taken and added to 9 ml of the test solution (containing the antimicrobial active). The mixture was kept for the desired amount of time after which it was neutralized by adding 1 ml of mix to the 9 ml of D/E neutralizer. It was then serially diluted till 10^5. The number of bacteria was then enumerated by using the pour plate method.
# IL-8 [4] = test: IL-8 ELISA in keratinocytes induced with LPS, heat killed or live P. acnes
# Procedure: (§1) The procedure used to measure the anti-inflammatory potential of the various samples was as follows: The primary keratinocytes were seeded in a 24 well plate (80000 cell/well). On attaining full confluency, the cells were pretreated with the active for 24 hours. Inflammation was induced either through using LPS or through use of live and heat treated P. acnes for 24 hours. The cell-supernatant was then taken and frozen. The cytokine levels in these supernatants were detected by ELISA.
# The experiments as shown in Table - 6 were studies using keratinocyte cell lines and the IL-8 concentration was measured. Table - 6
# Examples K, 9 and 10: Experiments similar to J, 7 and 8 except that live p.acne was used
# TNF-alpha [5] = test: TNF-alpha ELISA in primary keratinocytes, LPS-induced inflammation; conditions: primary keratinocytes pretreated 24 hours with 0.001% active, 25 µg LPS; control 283
# Procedure: as §1
# TNF-alpha [6] = test: TNF-alpha ELISA in PBMCs pretreated with active, induced with PMA/ionomycin; conditions: 0.001% active, 25 ng PMA/ 1 µg lonomycin, control 5384, lower = more anti-inflammatory
# Procedure: (§2) The procedure used to measure the anti-inflammatory potential of the various samples was as follows: Blood was diluted with equal volume of HBSS or PBS(1:1). The PBMCs were isolated into fresh tube. These PBMC's were then plated in 96 well plate (10^6 cell/well). They were then pretreated with the active (for 24 hours). Induction was then carried out with antigen/mitogen for 24 hours. The cell-supernatant was then taken and frozen. The cytokine levels in these supernatants were detected by ELISA.
# The experiments were conducted using a similar procedure as earlier except that TNF-alpha ELISA was measured as a marker. Table -2
# IL-17 [7] = test: IL-17 ELISA in PBMCs pretreated with active, induced with PMA/ionomycin; conditions: PBMCs pretreated with 0.001% active for 24 hours, induction 24 hours with 25 ng PMA/ 1 µg lonomycin; control 732; lower = more anti-inflammatory
# Procedure: as §2
# [8] = Table 9: PBMCs, Andrographolide pre-treatment (0.001% per procedure), P.acne treated with 0.05% Thymol, 0.05% Terpineol, 0.2% TCC, 0.2% TCN or 0.2% Silver Oxide, P.acne alone 641.5
compound,measurement,setting,value
"[Ag+].[Ag+].[O-2] [Silver Oxide, silver oxide, reference compound]",TNF-alpha concentration,TNF-alpha [1],494.3 pg/mL
same,IL-8 concentration,IL-8 [2]; [8],599.8 pg/mL
CC1=C(/C=C/C(C)=C/C=C/C(C)=C/C(=O)O)C(C)(C)CCC1 [Retinoic acid],IL-17 concentration,IL-17 [3],2762 pg/mL
CC1=C(/C=C/C(C)=C/C=C/C(C)=C/CO)C(C)(C)CCC1 [Retinol],IL-17 concentration,IL-17 [3],2006 pg/mL
"Cc1ccc(C(C)C)c(O)c1 [Thymol, thymol]",TNF-alpha concentration,TNF-alpha [1],546.94 pg/mL
same,IL-8 concentration,IL-8 [2]; [8],546.38 pg/mL
"O=C(Nc1ccc(Cl)cc1)Nc1ccc(Cl)c(Cl)c1 [TCC, Trichlorocarbanilide]",Log CFU/ml,"bacterial cells; contact time 15 seconds, 1X10^8 cells of bacteria",7.1 Log CFU/ml
same,Log CFU/ml,bacterial cells; contact time 30 seconds,7.1 Log CFU/ml
same,Log CFU/ml,bacterial cells; contact time 1 minute,7.1 Log CFU/ml
same,Log CFU/ml,bacterial cells; contact time 5 minutes,7.1 Log CFU/ml
same,IL-8 concentration,IL-8 [2]; [8],626.48 pg/mL
"C=C1CC[C@@H]2[C@](C)(CO)[C@H](O)CC[C@@]2(C)[C@@H]1C/C=C1/C(=O)OC[C@H]1O [Andrographolide, andrographolide]",IL-8 concentration,"IL-8 [4]; 0.01% active, inducer 50 µg LPS, control 649",229 pg/mL
same,IL-8 concentration,"IL-8 [4]; 0.01% active, inducer heat killed P. acnes, control 2238",1088 pg/mL
same,IL-8 concentration,"IL-8 [4]; 0.01% active, inducer live P. acnes, control 558",337 pg/mL
same,IL-8 concentration,"IL-8 [4]; 0.1% active, inducer 50 µg LPS, control 649",78 pg/mL
same,IL-8 concentration,"IL-8 [4]; 0.1% active, inducer heat killed P. acnes, control 2238",230 pg/mL
same,IL-8 concentration,"IL-8 [4]; 0.1% active, inducer live P. acnes, control 558",205 pg/mL
same,TNF-alpha concentration,TNF-alpha [1],231.15 pg/mL
same,TNF-alpha concentration,TNF-alpha [5],156 pg/mL
same,TNF-alpha concentration,TNF-alpha [6],58 pg/mL
same,IL-8 concentration,"IL-8 [2]; Table 8: PBMCs pre-treated with 0.001% Andrographolide for 24 hours and/or P.acne treated with thymol (0.05%) and terpineol (0.05%) for 30 seconds, P. acnes alone 957",400 pg/mL
same,IL-8 concentration,IL-8 [2]; [8],276.48 pg/mL
same,IL-17 concentration,IL-17 [3],1187 pg/mL
same,IL-17 concentration,IL-17 [7],143 pg/mL
"Oc1cc(Cl)ccc1Oc1ccc(Cl)cc1Cl [TCN, Triclosan, reference compound]",IL-8 concentration,IL-8 [2]; [8],613.15 pg/mL
"CCC(C)(C)C(=O)O[C@H]1C[C@@H](C)C=C2C=C[C@H](C)[C@H](CC[C@@H]3C[C@@H](O)CC(=O)O3)[C@H]21 [Simvastatin, reference compound]",IL-17 concentration,IL-17 [7],493 pg/mL
